Values of other authors, collected in patent US11045550B2, “Use of an amino sugar as plasticizer” (Merck Patent GmbH, priority 2016, dated 2021).

Assays:
[1] = at 144° C., literature data

## CCC(C)n1ncn(-c2ccc(N3CCN(c4ccc(OCC5COC(Cn6cncn6)(c6ccc(Cl)cc6Cl)O5)cc4)CC3)cc2)c1=O (stereo not shown) [Itraconazole]
other
  pKa (strongest basic): 3.92

## CC(C)Cc1ccc(C(C)C(=O)O)cc1 (stereo not shown) [Ibuprofen]
[1]
  Ibuprofen degraded when processed by HME: 11.6%

## CCCc1nc2c(C)cc(-c3nc4ccccc4n3C)cc2n1Cc1ccc(-c2ccccc2C(=O)O)cc1 [Telmisartan]
other
  pKa (strongest acidic): 3.65

## CNC[C@@H](O)[C@@H](O)[C@H](O)[C@H](O)CO [Meglumine, D-(−)-N-Methylglucamine]
other
  pKa value: 9.60
